Test results taken from patent US11613547B2 (priority 2019, dated 2023).
“And” between values parts separate entries of the source, which are not always exact repeats. Equal entries are not always repeated.

What was measured:
mKOR [1] = target: T1, mKOR (Mus musculus, UniProt P33534); assay: Radioligand competition binding ([125I]IBNtxA), CHO membranes, mKOR; details: vs 125IBNtxA (0.1 nM), mean ± SEM
T1 construct: expressed in transfected cells

hMOR [2] = target: T2, hMOR (Homo sapiens, UniProt P35372); assay: Tango β-arrestin recruitment assay, hMOR; assay type: cell-based
T2 construct: expressed in transfected cells; host or cells: HEK 293T (ATCC CRL-11268), transient

[3] = target: T3, mouse mu opioid receptor (mMOR) (Mus musculus, UniProt P42866); assay: cell-based; assay type: cell-based
T3 construct: expressed in transfected cells; host or cells: HEK-293T, transient (PEI), with BRET sensor cDNAs

hMOR [4] = target: T2, hMOR; assay: cell-based; assay type: cell-based
hKOR [5] = target: T4, hKOR (Homo sapiens, UniProt P41145); assay: Tango β-arrestin recruitment assay, hKOR; assay type: cell-based
T4 construct: expressed in transfected cells; host or cells: HEK 293T (ATCC CRL-11268), transient

hDOR [6] = target: T5, hDOR (Homo sapiens, UniProt P41143); assay: cAMP inhibition assay, hDOR; assay type: cell-based; set-up: expressed in transfected cells
mMOR [7] = target: T6, mMOR (Mus musculus, UniProt P42866); assay: [35S]GTPγS functional assay, mMOR; assay type: biochemical
T6 construct: expressed in transfected cells

hDOR [8] = target: T5, hDOR; assay: Tango β-arrestin recruitment assay, hDOR; assay type: cell-based; set-up: expressed in transfected cells; host or cells: HTLA cells expressing TEV fused-beta-Arrestin2
mDOR [9] = target: T7, mDOR (Mus musculus, UniProt P32300); assay: Radioligand competition binding ([125I]IBNtxA), CHO membranes, mDOR; details: vs 125IBNtxA (0.1 nM), CHO membranes, mean ± SEM
T7 construct: expressed in transfected cells

[10] = target: T8, mouse delta opioid receptor (mDOR) (Mus musculus, UniProt P32300); assay: BRET assay, arrestin recruitment, mDOR; assay type: cell-based
T8 construct: expressed in transfected cells; host or cells: HEK-293T, transient (PEI), with BRET sensor cDNAs

[11] = target: T8, mouse delta opioid receptor (mDOR); assay: BRET assay, G-protein activation, mDOR; assay type: cell-based
hKOR [12] = target: T4, hKOR; assay: cAMP inhibition assay (GloSensor, HEK 293T), hKOR; assay type: cell-based
mKOR [13] = target: T1, mKOR; assay: [35S]GTPγS functional assay, mKOR; assay type: biochemical
[14] = target: T9, rat kappa opioid receptor (rKOR) (Rattus norvegicus, UniProt P34975); assay: BRET assay, arrestin recruitment, rKOR; assay type: cell-based
T9 construct: expressed in transfected cells; host or cells: HEK-293T, transient (PEI), with BRET sensor cDNAs

mMOR [15] = target: T6, mMOR; assay: Radioligand competition binding ([125I]IBNtxA), CHO membranes, mMOR; details: vs 125IBNtxA (0.1 nM), mean ± SEM
[16] = target: T9, rat kappa opioid receptor (rKOR); assay: BRET assay, G-protein activation, rKOR; assay type: cell-based
mDOR [17] = target: T7, mDOR; assay: [35S]GTPγS functional assay, mDOR; assay type: biochemical
[18] = target: T3, mouse mu opioid receptor (mMOR); assay: cell-based; assay type: cell-based; remark: listed apart in the source
C57 mice = assay: Respiratory rate (CLAMS); details: 10 mg/kg IP or 30 nmol icv, 10 mg/kg
C57BL/6J mice [19] = assay: Conditioned place preference and aversion; details: MP1207 100 nmol icv, morphine 10 mg/kg IP, U50,488h 30 mg/kg IP
C57BL/6J mice [20] = details: icv, same assay (Aldrich et al., 2014); cited from earlier work
[21] = read-out: Arrestin recruitment Emax % ± SEM

## O=C(N[C@@H]1CC[C@@]2(O)C3Cc4ccc(O)cc4[C@@]2(CCN3CC2CC2)C1)c1cccc(I)c1 [MP1601, N-((4bR,6R,8aS)-11-(Cyclopropylmethyl)-3,8a-dihydroxy-6,7,8,8a,9,10-hexahydro-5H-9,4b-(epiminoethano)phenanthren-6-yl)-3-iodobenzamide]
mKOR [1]
  Ki: 2.13 ± 0.3 nM
hMOR [2]
  Emax: 27 ± 2%
hMOR [2]; Tango
  Arrestin pEC50±SEM hMOR: 8.4±0.2
[3]
  Gi pEC50±SEM mMOR: 8.6±0.3
[3]; read-out: Gi EC50 mMOR
  EC50: 2.2 nM
[3]; read-out: Gi Emax mMOR
  Emax: 49 ± 3%
hMOR [4]
  Bias factor toward G protein, hMOR: 4
  Gi pEC50±SEM hMOR: 9.99±0.09
hMOR [4]; HEK-293T, read-out: Gi Emax hMOR
  Emax: 69 ± 1%
hMOR [4]; read-out: Gi EC50 hMOR
  EC50: 0.1 nM
hKOR [5]
  Emax: 107 ± 3%
hKOR [5]; Tango, WT-hKOR
  Arrestin pEC50±SEM hKOR: 8.49±0.07
hDOR [6]; hDOR
  EC50: 2.76 nM
  cAMP inhibition pEC50 ± SEM: 8.6 ± 0.06
hDOR [6]; read-out: cAMP inhibition Emax % ± SEM
  Emax: 106 ± 2.3%
mMOR [7]
  Emax: 45 ± 4.6%
mMOR [7]; [35S]GTPγS, nM ± SEM
  EC50: 0.5 ± 0.2 nM
hDOR [8]; hDOR, Tango
  Arrestin recruitment pEC50 ± SEM: 7.1 ± 0.06
  EC50: 86.7 nM
hDOR [8]; [21]
  Emax: 203 ± 5.4%
mDOR [9]
  Ki: 5.37 ± 0.9 nM
[10]; mDOR, BRET
  EC50: 9 nM
[10]; [21]
  Emax: 16 ± 1.4%
[11]; mDOR, BRET
  G-Protein activation pEC50 ± SEM: 8.2 ± 0.20
[11]; read-out: G-Protein activation Emax % ± SEM
  Emax: 105 ± 6.7%
hKOR [12]; HEK-293T, read-out: Gi Emax hKOR
  Emax: 109 ± 1%
hKOR [12]; cAMP inhibition
  Gi pEC50±SEM hKOR: 9.76±0.05
hKOR [12]; cAMP inhibition vs Tango, against U50,488H as control
  Bias factor toward G protein, hKOR: 0.15
hKOR [12]; cAMP inhibition, read-out: Gi EC50 hKOR
  EC50: 0.17 nM
mKOR [13]
  Emax: 72 ± 4.5%
mKOR [13]; [35S]GTPγS, nM ± SEM
  EC50: 3 ± 0.7 nM
[14]
  Emax: 37 ± 3%
[14]; BRET
  Arrestin pEC50±SEM rKOR: 7.2±0.23
  EC50: 56.5 nM
mMOR [15]
  Ki: 0.2 ± 0.01 nM
[16]; BRET
  Gi pEC50±SEM rKOR: 8.1±0.12
[16]; BRET assays, against U50,488H as control
  Bias factor toward G-protein, rKOR: 0.9
[16]; BRET, read-out: Gi EC50 rKOR
  EC50: 8.9 nM
[16]; read-out: Gi Emax rKOR
  Emax: 75 ± 3%
mDOR [17]
  Emax: 67 ± 3.9%
mDOR [17]; [35S]GTPγS, nM ± SEM
  EC50: 10 ± 1.6 nM
[18]
  arrestin recruitment at mMOR: no arrestin recruitment was observed

## CN1CC[C@]23c4c5ccc(O)c4O[C@H]2[C@@H](O)C=C[C@H]3[C@H]1C5 [Morphine, reference compound]
C57 mice
  respiratory rate: significant reduction in respiratory rates
C57 mice; listed as morphine
  respiratory rate: decreased respiratory rate
C57BL/6J mice [19]
  conditioned place preference or aversion (CPP/CPA): place preference
C57BL/6J mice [20]
  antinociceptive ED50 (95% CI), reported: 2.35 (1.13-5.03) nmol and 2.35 nmol
